Laboratory results published in ChEMBL document CHEMBL3507680, “University of Dundee, Gates Library screen for HepG2 cell viability”.

Assay: Human HepG2 cell viability assay in 384 well format
Assay type: toxicity, cell-based
Set-up: dose 125 nL, time 70.5 hour; cytotoxicity at 70.5 h: concentration not given beside the values
Details: HepG2 cells, read-out: Inhibition

Compound	cytotoxicity at 70.5 h [%]
CCc1nccn1C1CCCN(C(=O)CCc2nccs2)C1 (centres undefined)	-15.8
Cc1cccc(NC(=O)N2CCn3cnc(COCC4CC4)c3C2)c1	-13.2
Cc1ccc(C(=O)N2CCc3ncc(Cn4cccn4)n3CC2)o1	-3.58
CC(NC(=O)CCCN(C)C)c1cn(-c2ccccc2)nn1 (centres undefined)	20.9
O=C(NCCCn1cccn1)C1(c2ccc(F)cc2)CC1	-2.75
Cc1ccc(S(=O)(=O)NCc2cnn(C)c2)c(F)c1	-3.12
COC(=O)C(NC(=O)CCOC(C)C)c1cc(F)ccc1F (centres undefined)	18.1
COCCCC1CCCCN1Cc1cc(F)ccc1-n1cccn1 (centres undefined)	9.72
Cc1ccccc1C1(CN)CCOCC1	-6.58
CCN1C[C@H]2C3(CCN(C(C)=O)CC3)CC[C@@]2(C(=O)N(C)C)C1	-8.84
O=C(O)c1ccc2[nH]cc(CN3CCCC3)c2c1	6.43
O=C(c1cccc2[nH]ccc12)N1CCC2(CCOC2)C1 (centres undefined)	2.34
Cc1ccc(C(=O)NCCCN(C)S(C)(=O)=O)cc1-n1cccc1	-8.22
NC(=O)C1CCN(C(=O)c2cc(-n3cnnn3)ccc2Cl)CC1	-14.1
Cc1nc(C)c(C(C)NCc2cnc(N3CCOCC3)nc2)s1 (centres undefined)	19.8
Cc1ccc(NC2CCN(C(=O)COc3cccnc3)CC2)nn1	22
OC1CN(c2nc3c(C(F)(F)F)cccc3s2)C1	12.2
O=C(NCCc1noc(C2CCCC2)n1)c1cn2ccsc2n1	-6.72
Cc1cc(C)c2nc(CN3CCC(N4CCOCC4)CC3)cc(O)c2c1	-0.693
Cc1ncc(CN(C)CCO)c2cc(C(=O)c3ccc(Br)cc3)oc12	-15.5
Cc1cc(C(=O)N2CCCCC2c2nc3cc(F)ccc3[nH]2)no1 (centres undefined)	27.9
Cn1ccc(C(=O)N(CC(F)(F)F)c2cccc(Cl)c2)cc1=O	11.6
COc1cc(C(=O)NCCCO)cc2occc12	-9.45

Compound	cytotoxicity at 70.5 h [%]
O=C(NC1CCN(c2ccc(-c3ccccc3F)nn2)C1)c1ccc[nH]1 (centres undefined)	10.6
Cc1cnn(C2CCCN(C(=O)Cn3ccc(=O)n(C)c3=O)C2)c1 (centres undefined)	-1.04
CC(C)(C)c1noc(OCC(=O)NCC(F)(F)F)n1	-0.303
CC(C)c1nc2c(n1C)CCN(CC(=O)Nc1ccc(Cl)cn1)C2	-14.9
COc1ccc(-c2cc(CNc3ncnc4c3CCNCC4)no2)cc1	23.4
Cc1nc2n(n1)CC(NCc1nc(C)c(C)o1)CC2 (centres undefined)	-0.801
CS(=O)(=O)N1C[C@H]2CCCN(Cc3cccs3)[C@H]2C1	6.54
Cc1cccc(COCC2c3nnn(C)c3CCN2Cc2ccoc2)n1 (centres undefined)	-5.52
CCN(CC)C(=O)CN1CCc2c(nc(C3CCNCC3)nc2NC)C1	-8.61
CSCC(C)(O)CNC(=O)c1ccc(F)cc1Br (centres undefined)	-4.95
Cc1ccc(NC(=O)Nc2c(O)oc3ccccc3c2=O)cc1C	-5.07
CC(C)c1ncc(CNC2(c3ccc(Cl)cc3)CC2)cn1	-1.4
Cc1ccccc1N1CCN(CCS(=O)(=O)c2ccc(Br)cc2)CC1	16
Cc1nc(C)c(C(=O)N2CCCc3c(F)ccc(F)c32)o1	-9.33
OCC1CCCN1c1cc(NCCNc2cccnn2)ncn1 (centres undefined)	-6.7
CCS(=O)(=O)N1CCC2(CC1)c1ncc(-c3cccnc3)n1CCN2C	-5.3
Cc1ccc(N2C[C@@H]3OCCN(CC4CC4)[C@@H]3C2)nn1	-7.81
CN(Cc1ccccc1)CC(O)Cn1cnc2ccccc2c1=O (centres undefined)	6.62
CC(C)[C@@H]1CN(C(=O)NCCc2ccccc2)C[C@H]1NS(=O)(=O)N(C)C	2.29
CC(C)(C)OC(=O)N1CC(=O)N(CCc2ccccc2)CC(O)C1 (centres undefined)	30.2
CC(C)(C)Nc1nc(-c2cccnc2)c(-c2ccnc(NCCO)n2)s1	-9.49
CN1CC(=O)N(c2ccsc2)CC12CCN(C(=O)c1ccc[nH]1)C2 (centres undefined)	8.85
Cc1cnn(CCCn2ncc(N3CCC(CN)C3)cc2=O)c1 (centres undefined)	9.78

Compound	cytotoxicity at 70.5 h [%]
Cc1cc(C)n(-c2ccc(CNCc3ccc(F)c(F)c3)cn2)n1	2.51
Nc1cc(-c2nccnc2N2CCCC2)c2cc[nH]c2n1	-11.5
O=S(=O)(CCCn1cncn1)Cc1ccccc1Cl	-6.92
O=C(c1ccccn1)N1CCc2ncnc(-c3ccncc3)c2CC1	-0.573
Cn1ccnc1-c1noc(NCc2ccc3c(c2)OCCO3)n1	8.69
N#Cc1c(SCCN2CCOCC2)sc2c(O)cc(O)nc12	17.3
Nc1c(Cl)cnn1C1CCN(Cc2ccccc2)C1 (centres undefined)	-3.84
CN(C)C(=O)CCNC(=O)Nc1cccc(Cl)c1-n1cccn1	1.32
Cc1nn(-c2ccccn2)c(C)c1[C@@H]1C=C[C@@H](NC(=O)NC(C)C)C1	0.445
CCN1CC(C(=O)N2CC(Oc3ccccc3F)C2)CC1=O (centres undefined)	-1.35
CCC(NC(=O)c1cccc(N2CCCC2=O)c1)c1ccc(OC)cc1 (centres undefined)	-4.2
Cn1nnnc1SCCNC(=O)c1cccc2ccnn12	3.9
CC(=O)N1CCCN(C(=O)NC(C)c2csc3ccccc23)CC1 (centres undefined)	-6.35
CN(C)C(=O)c1cccc(Nc2cnn(C)c2)c1	-3.59
COc1cccc2c1CCC2NC(=O)NCc1csc(N(C)C)n1 (centres undefined)	9.68
Cc1cc(CN2CCOC(Cn3nc(C)cc3C)C2)on1 (centres undefined)	-5.48
OC[C@H]1CCCN1c1nccc(-c2cncnc2C2CCCCC2)n1	-2.18
CNC(=O)[C@H]1C[C@@H]2CCN(Cc3nccs3)C[C@H]2O1	-6.34
CC(O)CN1CCc2[nH]nc(C(c3ccccc3)c3ccccc3)c2C1 (centres undefined)	-5.7
NC(=O)C1CCN(C(=O)c2cc(S(=O)(=O)N3CCCC3)cs2)CC1	-8.68
CCc1n[nH]c(C2CN(C(=O)CCc3cccs3)CCO2)n1 (centres undefined)	13.9
O=C(Nc1cccn(CC(F)(F)F)c1=O)c1ccc(F)cc1	19.4
Cn1nc(CN2CCCCC2)c2c1CN(C(=O)c1ccccc1)C2	23.3

Compound	cytotoxicity at 70.5 h [%]
COCCN1CCN(S(=O)(=O)c2ccccc2)Cc2cccnc21	-5.54
CCNC(=O)NC[C@@H]1C=C(C)[C@H](CC(=O)NCCN(C)C)C[C@H]1C(C)C	-0.736
CCS(=O)(=O)N1C[C@@H]2CN(Cc3ccco3)CCO[C@@H]2C1	27.9
CC1=C[C@@H](CN2CCC(CO)CC2)[C@H](C(C)C)C[C@H]1Cc1nnc(C)o1	-1.39
CS(=O)(=O)NC1CCN(C(=O)COCc2ccccc2)CC1	18.3
CCc1nc(Nc2cccc(C(=O)NC)c2)c2c(n1)c(C)nn2CC	-11
COC[C@]1(O)CCN(C2CCN(c3ccc(OC)cc3)CC2)CC1(C)C	23.9
NC(=O)c1cc(C2CCCN(C(=O)CCc3cccs3)C2)n[nH]1 (centres undefined)	10.7
Cc1cccc(CN2CCCC[C@H]3CN(c4ncccn4)C[C@H]32)c1	5.5
CCN(CC)C(=O)Cc1csc(C(C)C)n1	14
N#Cc1ccc(N2CCCC(CO)(CCOc3ccccc3)C2)nc1 (centres undefined)	-6.22
CN(C)CCCNc1ncnc2cccc(F)c12	15.7
O=C(c1ccn[nH]1)N1CCCC(n2cncn2)C1 (centres undefined)	5.61
Clc1snnc1CN1CCCC(Cn2cncn2)C1 (centres undefined)	14.5
O=S(=O)(CC1CCCCC1)NCc1ccc(O)nc1	-10.2
CCOc1ccc(CNCCCn2ccnc2)cc1Br	6.06
CCS(=O)(=O)NC[C@]12COC[C@H]1CN(Cc1ccccn1)C2	-3.72
CNC(=O)[C@H]1C[C@H]2OCC[C@H]2N(Cc2ccc(F)cc2)C1	-4.52
CSCc1ccc(N2CCN(c3ccc(Cl)cn3)CC2)nc1	3.63
COc1ccc(C)cc1CNC(=O)C1=NN(c2ccccc2)C(=O)CN1	-5.19
O=C1CCC2(CCN(c3ncc(F)cn3)CC2)N1Cc1ccncc1	7.51
COc1ccc(-c2c[nH]c(C3CC(=O)N(CC(C)C)C3)n2)cc1 (centres undefined)	-7.11
Cn1ncc2c(N3CCC3)nc(-c3ccncc3)nc21	4.72

Compound	cytotoxicity at 70.5 h [%]
Cc1ccc(CN2C(=O)CC[C@]23CC[C@@H](NCC2CCOC2)CC3)cc1 (some centres undefined)	18.5
Cn1ncc2c(=O)[nH]c(CN3CCCc4cc(F)ccc43)nc21	-23.1
COCCN1CCCc2sc(C(=O)Nc3ccc(C)nc3)nc21	-0.226
CN(C)Cc1nnc2n1CCCN(C(=O)c1c[nH]cn1)C2	-0.569
CC(c1cccnc1)N(C)Cc1ccccn1 (centres undefined)	-7.62
COc1cccc(CN2C[C@@H]3CC[C@@](O)(c4ccccn4)[C@@H]3C2)c1OC	12.8
Cc1cccc(CN2CCC3(CC2)CN(c2cccnc2)C(=O)CO3)n1	-4.77
CCc1cnc(CN(C)C2CCN(CCn3cc(C#N)cn3)C2)o1 (centres undefined)	16.4
Cc1nc(CN2CCc3nn(C(C)C)c(=O)cc3C2)oc1C	4.51
CCOC(=O)c1c(NC(=O)CN2CCN(C(C)=O)CC2)sc(C)c1C	-13.3
Cc1noc([C@@H]2C[C@H](NS(=O)(=O)Cc3ccccc3)CN2C)n1	-3.9
CC(C)NC[C@H]1COCc2nc3cccnc3n21	-8.17
CN1CC(C(=O)NCc2cccnc2OCC(F)(F)F)CC1=O (centres undefined)	-2.61
CCn1nc(C)c(CN2CCNCC2)c1C	-5.76
Cc1n[nH]cc1C(=O)N1CCCC1c1cc[nH]n1 (centres undefined)	-5.51
COCCN1C[C@@H](C)[C@@]2(COCCN(C(=O)c3cccs3)C2)C1	1.58
CC(=O)c1ccc(NCc2cc3n(n2)CCCN(S(C)(=O)=O)C3)nc1	-1.18
CS(=O)(=O)N1CCCC12CCN(Cc1nccs1)CC2	-3.49
CN1CCCC1c1cncc(C(=O)NCC2CC2)n1 (centres undefined)	-6.82
O=C(CCN1CCN(c2ccc3nncn3n2)CC1)NC1CCCC1	-5.28
COc1ccccc1OC(C)CNC(=O)c1cnc[nH]1 (centres undefined)	-21.2
CCOc1ncccc1NC(=O)NC1CCCN(c2ncccn2)C1 (centres undefined)	-2.86
